Experimental findings from ChEMBL document CHEMBL3638669, “Substituted 2-(chroman-6-yloxy)-thiazoles and their use as pharmaceuticals” (2014) are described below.

Assay [1] deals with T1, Sodium/calcium exchanger 1 (Homo sapiens, UniProt P32418). Put plainly: Forward Mode Assay: The assay is based on the monitoring of intracellular Ca2+concentrations using the PBX Calcium Assay Kit from BD (Becton, Dickinson and Company) with calcium indicator dye 51-9000177BKa (BD, 640177), CHO cells expressing NCX1 were loaded with the dye, and after a preincubation period with the test compound, lonomycin (Calbiochem, 407950) was added. Ionomycin is an ionophor for Ca2+ions mediating an increase of intracellular Ca2+ions. Consequently, intracellular Ca2+ions are exchanged against extracellular Na+ions (Ca2+efflux, forward mode). The decrease of intracellular Ca2+ions was detected by measuring the fluorescence of the calcium indicator dye at a wavelength of 520 nm by a FLIPR device.Briefly, similarly as for the reverse mode, for the forward mode transport assay 18000 cells per well were seeded into a 96 well microplate (Corning COSTAR 3904) and incubated overnight in culture medium (cf. above). A total volume of 100 ul medium per well was used. The format is cell-based.

Assay [2] deals with T1, Sodium/calcium exchanger 1. Put plainly: Reverse Mode Assay: The assay is based on the monitoring of intracellular Ca2+concentrations using the calcium-sensitive dye Fluo-4. CHO cells expressing NCX1 were loaded with the dye by means of the acetoxymethyl ester Fluo-4 AM (Invitrogen, F14202), which is cleaved intracellularly by esterase activity to yield the charged species of free Fluo-4. After an preincubation period with the test compound, Gramicidine (Sigma, G5002) was added. Gramicidine is an ionophor for Na+ions mediating an increase of intracellular Na+ions. Consequently, intracellular Na+ions are exchanged against extracellular Ca2+ions (Ca2+influx, reverse mode). The intracellular elevation of Ca2+ ions was detected by measuring the fluorescence of Fluo-4 at a wavelength of 520 nm by a FLIPR device.Briefly, for the reverse mode transport assay 18000 cells per well were seeded into a 96 well microplate (Corning COSTAR 3904) and incubated overnight in culture medium (1x Nut Mix F12 (Ham) (Gibco, 21765-029); 10% (v/v) fetal calf serum. The format is cell-based.

As a reminder, the IC50 is the concentration that gives 50% inhibition.

T1 sequence (P32418 36-973 limits assumed): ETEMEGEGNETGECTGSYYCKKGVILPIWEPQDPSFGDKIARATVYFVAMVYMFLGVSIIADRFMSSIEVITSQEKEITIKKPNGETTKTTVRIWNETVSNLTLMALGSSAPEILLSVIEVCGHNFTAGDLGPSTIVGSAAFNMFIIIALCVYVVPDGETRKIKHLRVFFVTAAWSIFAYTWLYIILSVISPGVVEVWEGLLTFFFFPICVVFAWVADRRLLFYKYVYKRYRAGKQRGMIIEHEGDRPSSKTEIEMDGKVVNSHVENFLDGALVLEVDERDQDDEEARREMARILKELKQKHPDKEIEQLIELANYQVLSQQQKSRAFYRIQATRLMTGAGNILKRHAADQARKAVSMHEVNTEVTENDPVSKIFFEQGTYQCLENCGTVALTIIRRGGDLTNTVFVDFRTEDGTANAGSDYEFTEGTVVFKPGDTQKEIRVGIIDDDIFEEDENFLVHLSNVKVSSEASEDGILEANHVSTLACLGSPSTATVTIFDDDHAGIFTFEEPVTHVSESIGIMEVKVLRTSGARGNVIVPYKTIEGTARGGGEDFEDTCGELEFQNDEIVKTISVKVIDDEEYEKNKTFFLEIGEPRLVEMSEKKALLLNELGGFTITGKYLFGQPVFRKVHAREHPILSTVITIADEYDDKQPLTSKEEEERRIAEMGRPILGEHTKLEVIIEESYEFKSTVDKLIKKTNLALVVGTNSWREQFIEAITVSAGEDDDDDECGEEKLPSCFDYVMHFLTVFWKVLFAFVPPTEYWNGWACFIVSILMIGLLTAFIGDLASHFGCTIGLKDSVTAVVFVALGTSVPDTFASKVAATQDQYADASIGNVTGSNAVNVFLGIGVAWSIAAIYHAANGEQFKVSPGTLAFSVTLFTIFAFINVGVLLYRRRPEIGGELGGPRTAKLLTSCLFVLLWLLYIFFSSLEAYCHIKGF

On to `Cc1ccccc1C1CCc2cc(Oc3ncc(C(=O)NCc4ccnc(Cl)c4)s3)ccc2O1` (configuration not stated), for which the half-maximal inhibitory concentration (IC50) in assay [1] stood at 1900 nM.

On to `NCCCNC(=O)c1cnc(Oc2ccc3c(c2)CC[C@@H](c2ccccc2)O3)s1`, for which the IC50 in assay [2] came to 300 nM.
